Patent US20110150772A1, “MODULATORS OF CARNITINE OCTANOYLTRANSFERASE IN THE TREATMENT OF ACNE, OF SEBORRHOEIC DERMATITIS OR OF HYPERSEBORRHOEA” (GALDERMA RESEARCH & DEVELOPMENT, priority 2008, published 2011)

Columns and labels:
[1] = test system: CROT (carnitine O-octanoyltransferase) gene expression; test: Expression of CROT in Fuzzy rat epidermal split after 8 days of topical treatment, Affymetrix transcriptome analysis; assay type: in vivo; conditions: female Fuzzy rats, topical 1% once a day for 8 days, Affymetrix 1368426_at, control condition 601
Procedure: Fuzzy rat epidermal split expression data
The studies are carried out in female Fuzzy rats (Hsd: Fuzzy-fz) ten weeks old at the beginning of the study. The animals are treated at a dose of 1% (PPARg agonist rosiglitazone in solution in acetone) once a day for 8 days. Two hours after the final treatment, the animals are sacrificed by euthanasia and the skin on the back is removed. After incubation in dispase, the epidermis carrying the sebaceous glands is detached from the dermis (epidermal split). After grinding of the samples, the mRNA is prepared using Qiagen columns, in accordance with the supplier's instructions. The material thus prepared is subjected to large-scale transcriptome analysis on an Affymetrix platform. The data are subsequently standardized and, after statistical analysis, the results produced are expressed in arbitrary expression units (see below) accompanied, for each piece of data, by a statistical value for presence of the transcript (presence=1; absence=0).
Table 2: Measurement of the Expression of CROT in an Epidermal Split after 8 Days of Topical Treatment of FUZZY Rat Females with a PPARγ Agonist (Rosiglitazone) at 1%

[2] = test system: CROT gene expression; test: Expression of CROT in rat epidermal split containing sebaceous glands after topical PPARgamma agonist, real-time PCR; assay type: in vivo; conditions: topical 1% in acetone, female Fuzzy rats, standardized to 18S, versus carrier group; for CROT Relative induction - Kinetics (Hours) 0: 0 hours; for CROT Relative induction - Kinetics (Hours) 8: 8 hours; for CROT Relative induction - Kinetics (Hours) 24: 24 hours; for CROT Relative induction - Kinetics (Hours) 48: 48 hours; for CROT Relative induction - Kinetics (Hours) 96: 96 hours
Excerpt: Animals: Species: rat • Strain: Ico: Hsd: FUZZY-fz • Gender: female • Age: 10 weeks
Number per batch: 40 (8 animals per group)
Treatment: Route of administration: topical • Compound/batch: PPARgamma agonists:
A: 5-{4-[2-(methylpyridin-2-ylamino)ethoxy]-benzyl}thiazolidine-2,4-dione
B: (2-methoxyethoxymethoxy)naphthalene-2-carboxylic acid [4′-(2,4-dioxothiazolidin-5-ylmethyl)biphenyl-3-ylmethyl]methylamide or rosiglitazone
C: (S)-2-ethoxy-3-{4-[6-(3-heptyl-1-methyl-ureido)pyridin-2-yl]phenyl}propionic acid • Doses: 1% • Carrier: acetone (001) • Duration 96 hours
Method of evaluation: The animals are weighed at the beginning and at the end of the study. Skin biopsies are taken (6 samples of skin excised per rat) in order to analyse the expression of the genes (RNA extraction, reverse transcriptase and real-time PCR). The samples are stored overnight at 4° C. before incubation in 1M sodium bromide (NaBr) for 2 hours at 37° C. After incubation, the samples are separated into epidermis or dermis. The epidermal samples are stored at […]. Under these conditions, the sebaceous glands are in the epidermal split. PCRs are carried out, beginning with the CNAs originating from the epidermal splits containing sebaceous glands from control rats or rats treated with a PPARγ agonist: the mRNA is extracted using a column and quantified. The quality of the mRNAs is measured and is represented by the 18S/28S ratio. The results are standardized with respect to 18S, expressed as relative induction versus untreated animals (carrier group). The statistical analysis is obtained using internal software based on a modified Monte Carlo statistical analysis.

Row | SMILES | Expression after treatment with 1% rosiglitazone [1] | CROT Relative induction - Kinetics (Hours) 0 [2] | CROT Relative induction - Kinetics (Hours) 8 [2] | CROT Relative induction - Kinetics (Hours) 24 [2] | CROT Relative induction - Kinetics (Hours) 48 [2] | CROT Relative induction - Kinetics (Hours) 96 [2]
1 | CN(CCOc1ccc(CC2SC(=O)NC2=O)cc1)c1ccccn1 (centres unmarked) [rosiglitazone] | 742 arbitrary expression units |  |  |  |  | 
2 | CCCCCCCNC(=O)N(C)c1cccc(-c2ccc(C[C@H](OCC)C(=O)O)cc2)n1 [C, (S)-2-ethoxy-3-{4-[6-(3-heptyl-1-methyl-ureido)pyridin-2-yl]phenyl}propionic acid] |  | 1 | 0.40 | 0.52 | 0.36 | 0.20
3 | CN(CCOc1ccc(CC2SC(=O)NC2=O)cc1)c1ccccn1 (centres unmarked) [A, 5-{4-[2-(methylpyridin-2-ylamino)ethoxy]-benzyl}thiazolidine-2,4-dione] |  | 1 | 2.24 | 2.16 | 1.54 | 0.94
